From ChEMBL document CHEMBL1268840, “Design, synthesis and structure-activity relationship of novel quinoxalin-2-carboxamides as 5-HT3 receptor antagonists for the management of depression” (Bioorg Med Chem Lett, 2010) come the findings set out here.

Each structure is given as a SMILES string.

Data set [1] concerns the target T1, 5-hydroxytryptamine receptor 3A (Cavia porcellus, UniProt O70212).
T1 sequence (O70212 whole entry): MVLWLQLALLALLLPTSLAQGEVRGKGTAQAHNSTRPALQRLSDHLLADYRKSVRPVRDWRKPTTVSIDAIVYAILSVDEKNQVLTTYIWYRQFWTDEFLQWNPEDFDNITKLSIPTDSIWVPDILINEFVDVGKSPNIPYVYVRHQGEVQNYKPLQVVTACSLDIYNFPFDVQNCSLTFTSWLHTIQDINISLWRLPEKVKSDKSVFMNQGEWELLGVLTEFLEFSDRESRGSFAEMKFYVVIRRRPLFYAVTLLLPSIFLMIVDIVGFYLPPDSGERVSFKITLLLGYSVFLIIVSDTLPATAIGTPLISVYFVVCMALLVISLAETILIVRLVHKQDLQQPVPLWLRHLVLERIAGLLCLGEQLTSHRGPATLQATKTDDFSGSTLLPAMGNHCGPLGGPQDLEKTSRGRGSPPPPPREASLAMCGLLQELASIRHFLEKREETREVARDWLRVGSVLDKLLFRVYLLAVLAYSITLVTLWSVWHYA
Kind of data set: Antagonist activity at 5HT3 receptor in guinea pig ileum longitudinal muscle myenteric plexus assessed as inhibition of 2-methyl-5-HT-induced contraction. The data set is classed as functional, tissue-based. The settings on record: read-out: pA2 (converted).

For data set [2], the system named is Mus musculus. Kind of data set: Antidepressant-like activity in mouse assessed as immobility time at 1 mg/kg, ip by forced swimming test. Format: functional. The settings on record: route intraperitoneal.
In data set [3] the test system is Mus musculus. Kind of data set: Antidepressant-like activity in mouse assessed as immobility time at 0.5 mg/kg, ip by forced swimming test. The data set is classed as functional. The settings on record: route intraperitoneal.
The subject of data set [4] is Mus musculus. As to the kind of experiment: Antidepressant-like activity in mouse assessed as immobility time at 2 mg/kg, ip by forced swimming test. The data set is classed as functional. The settings on record: route intraperitoneal.
Data set [5] concerns Mus musculus. Kind of data set: Toxicity in mouse assessed as induction of spontaneous locomotor activity at 1 mg/kg, ip after 10 mins by actophotometry. Also noted: dose 1 mg/kg, route intraperitoneal. The settings on record: in vivo. Format: organism-based.
Data set [6] deals with Mus musculus. Kind of data set: Toxicity in mouse assessed as induction of spontaneous locomotor activity at 0.5 mg/kg, ip after 10 mins by actophotometry. The settings on record: in vivo. The data set is classed as organism-based. Also noted: dose 0.5 mg/kg, route intraperitoneal.
Data set [7] relates to Mus musculus. Kind of data set: Toxicity in mouse assessed as induction of spontaneous locomotor activity at 2 mg/kg, ip after 10 mins by actophotometry. Also noted: dose 2 mg/kg, route intraperitoneal. The data set is classed as organism-based. The settings on record: in vivo.

Turning to `Cc1ccc(NC(=O)c2cnc3ccccc3n2)cc1`, in data set [1], the Kb is 6.31 µM. The results for the Time in data set [2], in data set [3] and in data set [4] were 105 s, 140 s and 97.23 s, respectively. For the same compound, the Activity result in data set [5], in data set [6] and in data set [7] was “Non-toxic” in each case.

On to `O=C(NCc1ccccc1)c1cnc2ccccc2n1`, for which the Kb in data set [1] is 2 µM. For the same compound, the Time in data set [2] amounted to 133 s. The Activity result in data set [5], in data set [6] and in data set [7] was “Non-toxic” each time.

Regarding `O=C(NNc1ccccc1)c1cnc2ccccc2n1`, the Kb in data set [1] was 1.58 µM. Further, the Time in data set [2] came to 95.4 s; in data set [3], 126 s; in data set [4], 121 s. Moreover, the Activity entry in data set [5], in data set [6] and in data set [7] was “Non-toxic” throughout.

As for `O=C(Nc1cccc(Cl)c1)c1cnc2ccccc2n1`, the Kb in data set [1] was 1.58 µM. The Time in data set [2] stood at 151.2 s. Besides, the Activity entry in data set [5], in data set [6] and in data set [7] was “Non-toxic” each time.

As to `CCCNC(=O)c1cnc2ccccc2n1`, the Kb in data set [1] is 0.2 µM. In addition, the Time amounted to 92.33 s in data set [2], 148 s in data set [3] and 125 s in data set [4]. Moreover, the Activity result in data set [5], in data set [6] and in data set [7] was “Non-toxic” each time.

Turning to `CCCCNC(=O)c1cnc2ccccc2n1`, the Kb in data set [1] was 0.0501 µM. For the same compound, the Time in data set [2] was found to be 97.5 s; in data set [3], 121 s; in data set [4], 103 s. In addition, the Activity result in data set [5], in data set [6] and in data set [7] was “Non-toxic” each time.

With `O=C(c1cnc2ccccc2n1)N1CCCC1`, in data set [1], the Kb is 0.398 µM. The Time in data set [2] worked out at 139 s. Also, the Activity entry in data set [5], in data set [6] and in data set [7] was “Non-toxic” each time.

Regarding `O=C(NC1CCCC1)c1cnc2ccccc2n1`, the Kb in data set [1] was 0.316 µM. For the same compound, the Time is 94.25 s in data set [2], 125 s in data set [3] and 120 s in data set [4]. Moreover, the Activity result in data set [5], in data set [6] and in data set [7] was “Non-toxic” each time.

For `O=C(NC1CCCCC1)c1cnc2ccccc2n1`, the Kb in data set [1] was 1 µM. For the same compound, the Time in data set [2] stood at 92.85 s; in data set [3], 119 s; in data set [4], 99 s. Also, the Activity result in data set [5], in data set [6] and in data set [7] was “Non-toxic” each time.

As for `O=C(Nc1ccccc1)c1cnc2ccccc2n1`, the Kb in data set [1] was 0.158 µM. Moreover, the Time in data set [2] came out at 141 s. Further, the Activity result in data set [5], in data set [6] and in data set [7] was “Non-toxic” throughout.

`COc1ccc(NC(=O)c2cnc3ccccc3n2)cc1`: the Kb in data set [1] was 10 µM. Further, the Time in data set [2] is on record as 143.5 s. Further, the Activity entry in data set [5], in data set [6] and in data set [7] was “Non-toxic” in each case.

With `CC(=O)c1cccc(NC(=O)c2cnc3ccccc3n2)c1`, in data set [1], the Kb was 0.794 µM. The Time in data set [2] amounted to 132.4 s. Also, the Activity result in data set [5], in data set [6] and in data set [7] was “Non-toxic” in each case.

For `O=C(Nc1ccc([N+](=O)[O-])cc1)c1cnc2ccccc2n1`, the Kb in data set [1] was 10 µM. The Time amounted to 106.32 s in data set [2], 142 s in data set [3] and 108 s in data set [4]. The Activity entry in data set [5], in data set [6] and in data set [7] was “Non-toxic” each time.

For `Cc1c(Cl)cccc1NC(=O)c1cnc2ccccc2n1`, the Kb in data set [1] was 0.0251 µM. Besides, the Time in data set [2] was found to be 95.42 s; in data set [3], 120 s; in data set [4], 147 s. Besides, the Activity entry in data set [5], in data set [6] and in data set [7] was “Non-toxic” throughout.

`O=C(Nc1nc2ccccc2s1)c1cnc2ccccc2n1`: the Kb in data set [1] was 31.6 µM. Also, the Time in data set [2] is on record as 115.1 s. The Activity result in data set [5], in data set [6] and in data set [7] was “Non-toxic” throughout.

Turning to `O=C(Nc1ccc(NC(=O)c2cnc3ccccc3n2)cc1)c1ccccc1`, in data set [1], the Kb is 12.6 µM. Moreover, the Time in data set [2] is given as 125 s. The Activity result in data set [5], in data set [6] and in data set [7] was “Non-toxic” in each case.

Consider `O=C(Nc1ccccc1NC(=O)c1cnc2ccccc2n1)c1ccccc1`, for which the Kb in data set [1] is 100 µM. Also, the Time in data set [2] is recorded as 121 s. In addition, the Activity entry in data set [5], in data set [6] and in data set [7] was “Non-toxic” each time.

In the case of `Cc1nccn1CC1CCc2c(c3ccccc3n2C)C1=O` (stereo not drawn) [ONDANSETRON], in data set [1], the Kb is 0.126 µM. In addition, the Time is 100.4 s in data set [2], 130.2 s in data set [3] and 95.1 s in data set [4]. Also, the Activity result in data set [5], in data set [6] and in data set [7] was “Non-toxic” throughout.
